Measured values: paper PMC12238837, “DCAF16‐Based Covalent Molecular Glues for Targeted Protein Degradation of Histone Deacetylases” (Archiv Der Pharmazie, 2025)

Key:
Format in all cases: cell-based
[1] = system: acetylated histone H3 (indicator of reduced HDAC1‐3 activity); experiment: Cellular target engagement: immunoblot of acetylated histone H3; settings: MM.1S cells, 10 µM, 24 h
Experimental: (§1) Immunoblot analysis of acetylated histone H3 (A) and α‐tubulin (B) in MM.1S cell lysates after treatment with the indicated compounds (10 µM) or vehicle (DMSO) for 24 h. Representative images from a total of n = 2 replicates.
(§2) The MM.1S cells (3 × 10^6 cells/mL) were seeded into cell culture flasks and, after 72 h, treated with the indicated concentration of compound or DMSO for the given time. Cell lysis was performed with Cell Extraction Buffer and the addition of Halt Protease Inhibitor Cocktail and phenylmethanesulfonyl fluoride. Protein content was determined by Pierce BCA Protein Assay Kit. Samples were denatured by Laemmli 2× Concentrate, and Precision Plus Protein Unstained Standard was used as a molecular weight marker in all cases. SDS‐PAGE was performed with 10% Mini‐PROTEAN TGX Stain‐Free Gel (Catalog# 458035, Bio‐Rad, Hercules, CA, USA) at 200 V for 50 min (Catalog# 458035, Bio‐Rad). Afterwards, proteins were transferred with the Trans‐Blot Turbo Transfer System to Immobilon‐FL PVDF membranes at 1.0 A for 30 min and incubated with 5% milk‐powder solution for 1 h at room temperature under slight agitation. Subsequently, the membranes were incubated with anti‐HDAC1 (Catalog# 5356S, Cell Signaling Technology, Denver, MA, USA), anti‐HDAC2 (Catalog# 9959S, Cell Signaling Technology, Denver, MA, USA), anti‐HDAC3 (Catalog# 85057S, Cell Signaling Technology, Denver, MA, USA), anti‐HDAC4 (Catalog# 7628S, Cell Signaling Technology, Denver, MA, USA), anti‐HDAC6 (Catalog# 7558S, Cell Signaling Technology, Denver, MA, USA), anti‐acetyl‐histone H3 (Catalog# 9677S, Cell Signaling Technology, Denver, MA, USA), anti‐acetyl‐α‐tubulin (Catalog# 5335, Cell Signaling Technology, Denver, MA, USA), or anti‐GAPDH (Catalog# T0004, Affinity Biosciences, Cincinnati, OH, USA) antibody solutions in 1:1000–1:20000 dilutions at room temperature under slight agitation for 1 h, then put membranes at 4°C for overnight. […] The ChemiDoc XRS+ System was used for detection, and Image Lab Software 6.1 (Bio‐Rad, Hercules, CA, USA) for quantification.

[2] = system: acetylated α‐tubulin (marker of decreased HDAC6 activity); experiment: Cellular target engagement: immunoblot of acetylated α-tubulin; settings: MM.1S cells, 10 µM, 24 h
Experimental: as §1, §2

MM.1S cells = experiment: CellTiter-Glo cell viability assay; settings: Homo sapiens, MM1.S, 72 h, read-out: IC50 cell viability
Experimental: The MM.1S was obtained from ATCC (Manassas, VA, USA).
(§3) For this purpose, the dilution series was prepared at 200× concentration in DMSO and then further diluted to 10× concentration in medium. The final DMSO concentration was 0.5%. The toxicity of compounds was assessed after 72 h using the CellTiter‐Glo 2.0 cell viability assay. Luminescence was then measured, and the IC50 was determined by plotting dose–response curves and performing nonlinear regression using GraphPad Prism.
as §3, with “series were” for “series was”, “the CellTiter-Glo” for “the CellTiter‐Glo”, “plotting dose-response” for “plotting dose–response”, “GraphPad Prism.^[1]” for “GraphPad Prism.”

Row | SMILES | level of acetylated histone H3 [1] | level of acetylated α-tubulin [2] | IC50 (MM.1S cells) [nM]
1 | C=CS(=O)(=O)N1CCNCC1 [Compound 8, 1‐(Vinylsulfonyl)piperazine, reference compound] | no effects | no effects | 
2 | O=C(CCCCCCNC(=O)c1cnc(N(c2ccccc2)c2ccccc2)nc1)NO [Ricolinostat] |  |  | 2590 ± 270
